Where two headings read alike, the source gives them in different places.
What was measured:
H1650 cells = assay: CellTiterGlo (CTG) cell viability, 3D, 120 h, H1650 (Example 8); assay type: cell-based, human; conditions: Homo sapiens, NCI-H1650, H1650 3D
ALL-SIL cells = assay: CellTiterGlo (CTG) cell viability, 72 h, ALL-SIL (Example 8); assay type: cell-based
Experimental: ALL-SIL cells were cultivated in RPMI supplemented with 20% heat inactivated fetal bovine serum, penicillin (100 IU/ml), streptomycin (100 μg/ml) and L-glutamine (2 mM). Cell lines were cultured at 37° C. in a humidified atmosphere containing 5% CO2. Cells were seeded in 96 well clear bottom plates (96 well clear-bottom, white, Corning reference 3903) and exposed to the payloads or ADCs for 72 h (serially diluted; 9 concentrations each, triplicates). Effects of payloads or ADCs on cell viability were assessed after 3 days of incubation at 37° C./5% CO2 by quantification of cellular ATP levels using CellTiterGlo at 75 μL reagent/well. All the conditions were tested in triplicates. Luminescence was quantified on a multipurpose plate reader. IC50s were calculated using standard four-parametric curve fitting. […] Each experiment was performed at least twice, with results being reproducible.

DND-41 cells = assay: CellTiterGlo (CTG) cell viability, 72 h, DND-41 (Example 8); assay type: cell-based
Experimental: DND-41 cells were cultivated in RPMI supplemented with 10% heat inactivated fetal bovine serum, penicillin (100 IU/ml), streptomycin (100 μg/ml) and L-glutamine (2 mM). Cell lines were cultured at 37° C. in a humidified atmosphere containing 5% CO2. […] Effects of payloads or ADCs on cell viability were assessed after 3 days of incubation at 37° C./5% CO2 by quantification of cellular ATP levels using CellTiterGlo at 75 μL reagent/well. All the conditions were tested in triplicates. Luminescence was quantified on a multipurpose plate reader. IC50s were calculated using standard four-parametric curve fitting.

[1] = experiment n1, read-out: H1650 3D CTG IC50 n1
[2] = experiment n2, read-out: H1650 3D CTG IC50 n2
[3] = mean of n1 and n2, read-out: H1650 3D CTG IC50 Mean of n1 and n2
[4] = experiment n1, read-out: ALLSIL CTG 72 h IC50 nM n1
[5] = experiment n2, read-out: ALLSIL CTG 72 h IC50 nM n2
[6] = mean of n1 and n2, read-out: ALLSIL CTG 72 h IC50 nM Mean of n1 and n2
[7] = DND41, experiment n1, read-out: DND41 CTG 72 h IC50 nM n1
[8] = DND41, experiment n2, read-out: DND41 CTG 72 h IC50 nM n2
[9] = DND41, mean of n1 and n2, read-out: DND41 CTG 72 h IC50 nM Mean of n1 and n2

| IC50 (H1650 cells; [1]) [nM] | IC50 (H1650 cells; [2]) [nM] | IC50 (H1650 cells; [3]) [nM] | Structure (SMILES) | IC50 (ALL-SIL cells; [4]) [nM] | IC50 (ALL-SIL cells; [5]) [nM] | IC50 (ALL-SIL cells; [6]) [nM] | IC50 (DND-41 cells; [7]) [nM] | IC50 (DND-41 cells; [8]) [nM] | IC50 (DND-41 cells; [9]) [nM] | ALLSIL CTG 72 h IC50 nM n1 (ALL-SIL cells; experiment n1) |
| --- | --- | --- | --- | --- | --- | --- | --- | --- | --- | --- |
| 0.51 | 1.28 | 0.9 | Cc1c(Nc2nc3ccccc3s2)nnc2c1CCCN2c1nc(C(=O)O)c(CCCOc2ccc(C#CCN(C)C)cc2F)s1 [P1, 2-[3-(1,3-Benzothiazol-2-ylamino)-4-methyl-6,7-dihydro-5H-pyrido[2,3-c]pyridazin-8-yl]-5-[3-[4-[3-(dimethylamino)prop-1-ynyl]-2-fluoro-phenoxy]propyl]thiazole-4-carboxylic acid] | 0.38 | 0.14 | 0.26 | 1.3 | 0.26 | 0.78 |  |
| 0.7 | 1.8 | 1.25 | Cc1c(Nc2nc3ccccc3s2)nnc2c1CCCN2c1nc(C(=O)O)c(CCCOc2ccc(C#CC(C)N3CCN(C)CC3)cc2F)s1 (stereo not drawn) [P8, 2-[3-(1,3-Benzothiazol-2-ylamino)-4-methyl-6,7-dihydro-5H-pyrido[2,3-c]pyridazin-8-yl]-5-[3-[2-fluoro-4-[3-(4-methylpiperazin-1-yl)but-1-ynyl]phenoxy]propyl]thiazole-4-carboxylic acid] | 0.02 | 0.03 | 0.02 | 0.69 | 0.41 | 0.55 |  |
| 0.7 | 1.4 | 1.05 | Cc1c(Nc2nc3ccccc3s2)nnc2c1CCCN2c1nc(C(=O)O)c(CCCOc2ccc(C#CCN3CCCC3)cc2F)s1 [P9, 2-[3-(1,3-Benzothiazol-2-ylamino)-4-methyl-6,7-dihydro-5H-pyrido[2,3-c]pyridazin-8-yl]-5-[3-[2-fluoro-4-(3-pyrrolidin-1-ylprop-1-ynyl)phenoxy]propyl]thiazole-4-carboxylic acid] | 3.31 | 1.1 | 2.21 | 21.8 | 19.3 | 20.6 |  |
| 0.3 | 0.8 | 0.55 | Cc1c(Nc2nc3ccccc3s2)nnc2c1CCCN2c1nc(C(=O)O)c(CCCOc2ccc(C#CCN3CCN(C)CC3)cc2F)s1 [P10, 2-[3-(1,3-Benzothiazol-2-ylamino)-4-methyl-6,7-dihydro-5H-pyrido[2,3-c]pyridazin-8-yl]-5-[3-[2-fluoro-4-[3-(4-methylpiperazin-1-yl)prop-1-ynyl]phenoxy]propyl] thiazole-4-carboxylic acid] |  | 0.01 | 0.01 | 0.2 | 0.29 | 0.25 | <Cmin |
| 1.8 | 3 | 2.4 | CCN(C)CC#Cc1ccc(OCCCc2sc(N3CCCc4c3nnc(Nc3nc5ccccc5s3)c4C)nc2C(=O)O)c(F)c1 [P13, 2-[3-(1,3-Benzothiazol-2-ylamino)-4-methyl-6,7-dihydro-5H-pyrido[2,3-c]pyridazin-8-yl]-5-[3-[4-[3-[ethyl(methyl)amino]prop-1-ynyl]-2-fluoro-phenoxy]propyl]thiazole-4-carboxylic acid] | 2.6 | 1.44 | 2.02 | 11.8 | 12.1 | 11.9 |  |
|  |  |  | CNCC#Cc1ccc(OCCCc2sc(N(CCC(O)CO)c3cc(C)c(Nc4nc5ccccc5s4)nn3)nc2C(=O)O)c(F)c1 (stereo not drawn) [P44, 2-[[6-(1,3-Benzothiazol-2-ylamino)-5-methyl-pyridazin-3-yl]-(3,4-dihydroxybutyl)amino]-5-[3-[2-fluoro-4-[3-(methylamino)prop-1-ynyl]phenoxy]propyl]thiazole-4-carboxylic acid] | 4.64 | 3.14 | 3.89 | 36 | 33.6 | 34.8 |  |
|  |  |  | CNCC#Cc1ccc(OCCCc2sc(N(CCCO)c3cc(C)c(Nc4nc5ccccc5s4)nn3)nc2C(=O)O)c(F)c1 [P45, 2-[[6-(1,3-Benzothiazol-2-ylamino)-5-methyl-pyridazin-3-yl]-(3-hydroxypropyl)amino]-5-[3-[2-fluoro-4-[3-(methylamino)prop-1-ynyl]phenoxy]propyl]thiazole-4-carboxylic acid] | 3.11 | 4.01 | 3.56 | 17 | 16.8 | 16.9 |  |
|  |  |  | CNCC#Cc1ccc(OCCCc2sc(N(CCCC(O)CO)c3cc(C)c(Nc4nc5ccccc5s4)nn3)nc2C(=O)O)c(F)c1 (stereo not drawn) [P46, 2-[[6-(1,3-Benzothiazol-2-ylamino)-5-methyl-pyridazin-3-yl]-(4,5-dihydroxypentyl)amino]-5-[3-[2-fluoro-4-[3-(methylamino)prop-1-ynyl]phenoxy]propyl]thiazole-4-carboxylic acid] | 62.2 | 50 | 56.1 | 212 | 220 | 216 |  |
| 16.3 | 13.4 | 14.8 | Cc1c(Nc2nc3ccccc3s2)nnc2c1CCCN2c1ccc(-c2cnn(CC34CC5(C)CC(C)(C3)CC(OCCNCCC(=O)O)(C5)C4)c2C)c(C(=O)O)n1 [P71, 6-[3-(1,3-benzothiazol-2-ylamino)-4-methyl-6,7-dihydro-5H-pyrido[2,3-c]pyridazin-8-yl]-3-[1-[[3-[2-(2-carboxyethylamino)ethoxy]-5,7-dimethyl-1-adamantyl]methyl]-5-methyl-pyrazol-4-yl]pyridine-2-carboxylic acid] |  |  |  |  |  |  |  |
| 5.07 | 5.57 | 5.32 | Cc1c(Nc2nc3ccccc3s2)nnc2c1CCCN2c1ccc(-c2cnn(CC34CC5(C)CC(C)(CC(CCCNCCCCO)(C5)C3)C4)c2C)c(C(=O)O)n1 [P72, 6-[3-(1,3-benzothiazol-2-ylamino)-4-methyl-6,7-dihydro-5H-pyrido[2,3-c]pyridazin-8-yl]-3-[1-[[3-[3-(4-hydroxybutylamino)propyl]-5,7-dimethyl-1-adamantyl]methyl]-5-methyl-pyrazol-4-yl]pyridine-2-carboxylic acid] |  |  |  |  |  |  |  |
| 8.6 | 9.41 | 9.01 | Cc1c(Nc2nc3ccccc3s2)nnc2c1CCCN2c1ccc(-c2cnn(CC34CC5(C)CC(C)(C3)CC(OCCN3CCCC3)(C5)C4)c2C)c(CO)n1 [P73, [6-[3-(1,3-benzothiazol-2-ylamino)-4-methyl-6,7-dihydro-5H-pyrido[2,3-c]pyridazin-8-yl]-3-[1-[[3,5-dimethyl-7-(2-pyrrolidin-1-ylethoxy)-1-adamantyl]methyl]-5-methyl-pyrazol-4-yl]-2-pyridyl]methanol] |  |  |  |  |  |  |  |
| 2 | 1.86 | 1.93 | Cc1c(Nc2nc3ccccc3s2)nnc2c1CCCN2c1ccc(-c2cnn(CC34CC5(C)CC(C)(C3)CC(OCCN3CCCC3)(C5)C4)c2C)c(C(=O)N2CCCC2)n1 [P74, [6-[3-(1,3-benzothiazol-2-ylamino)-4-methyl-6,7-dihydro-5H-pyrido[2,3-c]pyridazin-8-yl]-3-[1-[[3,5-dimethyl-7-(2-pyrrolidin-1-ylethoxy)-1-adamantyl]methyl]-5-methyl-pyrazol-4-yl]-2-pyridyl]-pyrrolidin-1-yl-methanone] |  |  |  |  |  |  |  |
| 2.3 | 3.03 | 2.67 | Cc1c(Nc2nc3ccccc3s2)nnc2c1CCCN2c1ccc(-c2cnn(CC34CC5(C)CC(C)(C3)CC(OCCN3CCCC3)(C5)C4)c2C)c(C(=O)NC(C)C)n1 [P75, 6-[3-(1,3-benzothiazol-2-ylamino)-4-methyl-6,7-dihydro-5H-pyrido[2,3-c]pyridazin-8-yl]-3-[1-[[3,5-dimethyl-7-(2-pyrrolidin-1-ylethoxy)-1-adamantyl]methyl]-5-methyl-pyrazol-4-yl]-N-isopropyl-pyridine-2-carboxamide] |  |  |  |  |  |  |  |
| 2 | 3.87 | 2.94 | Cc1c(Nc2nc3ccccc3s2)nnc2c1CCCN2c1ccc(-c2cnn(CC34CC5(C)CC(C)(C3)CC(OCCN3CCCC3)(C5)C4)c2C)c(C(N)=O)n1 [P76, 6-[3-(1,3-benzothiazol-2-ylamino)-4-methyl-6,7-dihydro-5H-pyrido[2,3-c]pyridazin-8-yl]-3-[1-[[3,5-dimethyl-7-(2-pyrrolidin-1-ylethoxy)-1-adamantyl]methyl]-5-methyl-pyrazol-4-yl]pyridine-2-carboxamide] |  |  |  |  |  |  |  |
